{"source": "patent US20240189244A1", "about": "(priority 2021, published 2024)", "key": {"[1]": {"test_system": "renal proximal tubule cells (RPTCs)", "type": "cell-based, New Zealand white rabbits", "details": "for effect of inhibitor pretreatment on DEDC(NP) uptake by RPTCs: then 0.1 mg/mL DEDC(NP)s 2 h", "experimental": "To assess uptake of DEDC(NP)s, RPTCs were grown in 35-mm tissue culture dishes as described above. DEDC(NP) dispersions were prepared by diluting nanoparticles into media and vortexed immediately prior to experiments. Cells were preincubated for 30 min with varying concentrations of either media or the drugs chlorpromazine hydrochloride (Sigma-Aldrich), nocodazole (Sigma-Aldrich), or simvastatin (Sigma-Aldrich). After pre-incubation, DEDC(NP)s were added at a final concentration of 0.1 mg/mL and incubated for 2 h at 37° C. Cells were washed in triplicate with media to ensure removal of nanoparticles adhered to the outer cell membrane. Cells were then fixed in 10% neutral buffered formalin and nuclei stained with 4′,6-diamidino-2-phenylindole (DAPI). Cells were imaged using the EVOS M5000 Imaging System (ThermoFisher, Waltham, MA) and fluorescence intensity was analyzed by ImageJ (NIH) (n=5 biological replicates)."}, "Wistar rats": {"test_system": "Wistar rats", "details": "cited from earlier work"}, "[2]": {"test_system": "KIM-1, PGC-1α, ETC proteins, tight junction proteins in renal cortex", "assay": "I/R AKI: renal cortex proteins by immunoblot and KIM-1 immunohistochemistry", "type": "in vivo, C57Bl/6 mice", "details": "144 hours, daily treatment", "experimental": "(§1) Mice were subjected to bilateral renal ischemia for 18-20 minutes or sham surgery as previously described (Funk J A, Schnellmann R G. Persistent disruption of mitochondrial homeostasis after acute kidney injury. Am J Physiol Renal Physiol 2012; 302: F853-864). Mice were allowed to recover without intervention for 24 hours and sorted into groups based on 24-hour serum creatinine levels prior to initiation of dosing. Mice were dosed either daily or at a reduced frequency at 24 hours and 96 hours post-injury (2-day dosing). […] Mice were given VS and FFD via intraperitoneal injection."}, "physchem": {"assay": "physchem", "details": "for solubility at 24 h: 25 °C, thermodynamic from solid", "experimental": "For variable pH samples, solution pH was adjusted with either hydrochloric acid or sodium hydroxide solutions (1 M Sigma-Aldrich, St. Louis, MO). Vials were rotated gently for 24 hours at 25° C. as previously described (Aodah A, Pavlik A, Karlage K, Myrdal P B. Preformulation Studies on Piperlongumine. PLOS One. 2016; 11(3):e0151707). Test solutions were filtered using 0.45 μm PVDF or PTFE membrane filters (MilliporeSigma, Burlington, MA) for aqueous and organic solvents respectively."}, "[3]": {"test_system": "renal proximal tubule cells (RPTCs)", "assay": "Cell viability by resazurin reduction assay", "details": "formoterol 1-1000 nM, 24 hours", "method": "The RPTCs were cultured on 35-mm tissue culture dishes with 1:1 DMEM:F-12 (without glucose, phenol red, or sodium pyruvate) as media supplemented with 15 mM HEPES buffer, 2.5 mM L-glutamine, 1 μM pyridoxine HCL, 15 mM sodium bicarbonate, and 6 mM lactate. Daily, hydrocortisone (50 nM), selenium (5 ng/mL), human transferrin (5 μg/mL), bovine insulin (10 nM), and L-ascorbic acid-2-phosphate (50 μM) were added to fresh culture medium. Confluent cells were used for all experiments.\nCultured RPTCs were grown on 96-well plates at a cell density of 5×10^3 cells/well for 96 h. […] The treatments were each prepared by dissolving or suspending the powders in culture media. […] Viability was assessed (n=6 technical replicates per biological replicate) by resazurin reduction assay as described previously (41). Detection was assessed using Synergy H1 Multi-Mode Reader (BioTek Instruments, Inc., Winooski, VT) with 544 nm excitation and 590 nm emission wavelengths. The relative viability of the cells was calculated as follows: […]\nDetection was measured using Synergy H1 Multi-Mode Reader (BioTek Instruments, Inc., Winooski, VT) with 544 nm excitation and 590 nm emission wavelengths. Five biological replicates were used and viability of the cells was calculated as follows:"}, "[4]": {"test_system": "NDUFB8, SDHB, UQCRC2, ATP5A in renal cortex", "assay": "Nanoparticle dose selection: renal cortical ETC proteins after 1 week of dosing", "details": "BTBR WT mice", "method": "The FFD(NP) dosage and frequency was determined using BTBR wild type mice (BTBR T^+ Itpr3^tf/J) (The Jackson Laboratory, Bar Harbor, ME). […] The Veh(Sal) group was given intraperitoneal injections of normal saline daily. The Veh(NP) group was given 60 mg/kg nanoparticles injected via lateral tail vein 2× per week. […] After eight days, mice were weighed, euthanized and kidneys were extracted and snap-frozen in liquid nitrogen.\nProtein was extracted from renal cortical tissue using radioimmunoprecipitation assay (RIPA) buffer (50 mM Tris-HCl, 150 mM NaCl, 0.1% SDS, 0.5% sodium deoxycholate and 1% Triton X-100, pH 7.4) with protease inhibitor cocktail (1:100), 1 mM sodium fluoride, and 1 mM sodium orthovanadate (Sigma Aldrich). Equal protein quantities (10 μg) were loaded onto 4-15% SDS-PAGE gels, resolved by gel electrophoresis, and then transferred onto nitrocellulose membranes. Membranes were blocked in 5% milk in tris-buffered saline/tween 20, incubated at a temperature of 4° C. for 18-24 h with primary and secondary antibodies (Abcam). Bound antibodies were visualized using enhanced chemiluminescence (Thermo Scientific, Waltham, MA) and the GE ImageQuant LAS400 Biomolecular Imaging System (GE Healthcare, Marlborough, MA)."}, "C57BL/6 mice": {"test_system": "C57BL/6 mice", "assay": "Tail cuff heart rate and blood pressure, naive mice", "details": "1-2 hours after 0.3 mg/kg formoterol", "experimental": "(§2) Male C57BL/6 mice were obtained from Charles River (Oakwood, MI) and housed in a room at a constant temperature of 22+2° C. with 12:12 hour light-dark cycles. […] At 24 hours post exposure, mice were euthanized and kidney and heart were harvested. All experiments were approved by The University of Arizona in accordance with the guidelines set forth by the National Institutes of Health Guide for the Care and Use of Laboratory Animals.\n(§3) The blood pressure and heart rates were measured with a non-invasive tail cuff device (CODA8, Kent Scientific, CT) which uses a volume-pressure method as previously described (Wang Y, Thatcher S E, Cassis L A. Measuring Blood Pressure Using a Noninvasive Tail Cuff Method in Mice. Methods Mol Biol. 2017; 1614:69-73). All measurements were performed on restrained, conscious animals located on a heating pad following the manufacturers protocol. […] At least 10 valid measurements were taken per animal."}, "[5]": {"test_system": "PGC-1α, ND1, NDUFS1 in left ventricle", "assay": "Immunoblot of mitochondrial biogenesis markers in left ventricle of naive mice", "details": "24 hours; formoterol 0.3 mg/kg or nanoparticles 0.04 mg/kg formoterol i.v.; vs control", "experimental": "as §2"}, "I/R injured mice": {"test_system": "I/R injured mice", "assay": "I/R AKI: cardiovascular function by tail cuff", "details": "1-2 hours following administration", "experimental": "as §1\nas §3, with “Mouse” for “The”, “CT)” for “CT) which uses a volume-pressure method”, “Biol” for “Biol.”, “1614: 69-73).” for “1614:69-73).”, “manufacturer's” for “manufacturers”"}, "BTBR WT and ob/ob mice": {"test_system": "BTBR WT and ob/ob mice", "assay": "Diabetic mice: cardiovascular fibrosis, heart weight and survival", "experimental": "The efficacy of nanoparticle therapy was determined using BTBR wild type and obese diabetic mice (BTBR T^+ Itpr3^tf/J (WT) and BTBR.Cg-Lep^ob/WiscJ (ob/ob)) (The Jackson Laboratory, Bar Harbor, ME). […] Mice in the vehicle saline groups, Veh(Sal), received daily intraperitoneal injections of normal saline. Immediately following study initiation, 8 mice from both WT and ob/ob Veh(Sal) were euthanized and kidneys extracted for histological analysis. Remaining mice (n=8 per group) were treated for 8 weeks. Following the final week of treatment, mice were sacrificed and kidneys were perfused with normal saline with heparin (10 U/mL). Serum, kidneys and heart were collected for protein and histological analysis.\nCardiovascular fibrosis was measured by quantification of the fraction of trichrome-positive area in both interstitial and perivascular sections of the right ventricular wall. At least 15 sections were quantified per animal. All quantification was completed by an analyst blinded to treatment group."}, "[6]": {"test_system": "renal proximal tubule cells (RPTCs)", "details": "up to a concentration of 1000 nM, previous studies; cited from earlier work"}, "[7]": {"details": "ventricular wall, 8 weeks of treatment"}}, "note": "Structures can show the parent of a compound that is named as a salt."}
{"smiles": "CCN1C(=CC=CC=Cc2sc3ccccc3[n+]2CC)Sc2ccccc21.[I-]", "note": "[DEDC, 3,3′-diethylthiadicarbocyanine iodide]", "values": [{"measurement": "intracellular fluorescence in RPTCs (uptake)", "setting": "[1]; 0.1 mg/mL DEDC(NP)s or equivalent free dye, 2 h", "result": "minimal"}]}
{"smiles": "CN(C)CCCN1c2ccccc2Sc2ccc(Cl)cc21", "note": "[chlorpromazine, chlorpromazine hydrochloride]", "values": [{"measurement": "effect of inhibitor pretreatment on DEDC(NP) uptake by RPTCs", "setting": "[1]; 30 min preincubation", "result": "no observable decline in uptake"}]}
{"smiles": "COc1ccc(CC(C)NCC(O)c2ccc(O)c(NC=O)c2)cc1", "note": "(centres unmarked) [formoterol, Formoterol fumarate dihydrate]", "values": [{"measurement": "increase in heart rate from baseline", "setting": "Wistar rats; immediately following systemic dosing", "result": "100-150 bpm"}, {"measurement": "mean arterial pressure (MAP)", "setting": "Wistar rats; intravenous administration, similar doses", "result": "significant decrease in mean arterial pressure"}, {"measurement": "lowest dose at which heart rate effect was seen", "setting": "Wistar rats; rat, in vivo", "result": 3, "unit": "µg/kg"}, {"measurement": "persistence of heart rate increase", "setting": "Wistar rats; rat, in vivo", "result": "up to 4 hours"}, {"measurement": "claudin-5 expression", "setting": "[2]", "result": "50 % of sham"}, {"measurement": "solubility at 24 h", "setting": "physchem; organic solvent or mixture, Formoterol Solubility, ACN", "result": "5 ± 1", "unit": "µg/mL"}, {"measurement": "solubility at 24 h", "setting": "physchem; organic solvent or mixture, Formoterol Solubility, Acetone", "result": "63 ± 4", "unit": "µg/mL"}, {"measurement": "solubility at 24 h", "setting": "physchem; organic solvent or mixture, Formoterol Solubility, Chloroform", "result": "2 ± 1", "unit": "µg/mL"}, {"measurement": "solubility at 24 h", "setting": "physchem; organic solvent or mixture, Formoterol Solubility, DCM", "result": "1 ± 0.4", "unit": "µg/mL"}, {"measurement": "solubility at 24 h", "setting": "physchem; water, water solubility", "result": "1160 ± 20", "unit": "µg/mL"}, {"measurement": "Formoterol Solubility", "setting": "physchem; Acetone, fumarate dihydrate", "result": "51 ± 4", "unit": "µg/mL"}, {"measurement": "solubility in non-ionic surfactant solutions", "setting": "physchem; PVA and Pluronic F127, 0.1% to 5% in aqueous solution", "result": "remains unchanged"}, {"measurement": "solubility in water:alcohol mixtures", "setting": "physchem; ethanol and methanol volume fraction", "result": "increased with increasing volume fraction"}, {"measurement": "solubility in water at various pH", "setting": "physchem; pH adjusted with HCl or NaOH", "result": "increasing solubility in highly basic or acidic conditions"}, {"measurement": "viability of proximal tubule cells", "setting": "[3]", "result": "not significantly decreased"}, {"measurement": "weight gain", "setting": "[4]", "result": "no differences in weight gain amongst groups"}, {"measurement": "decrease in diastolic blood pressure", "setting": "C57BL/6 mice", "result": 19, "unit": "mmHg"}, {"measurement": "decrease in mean arterial pressure (MAP)", "setting": "C57BL/6 mice", "result": 16, "unit": "mmHg"}, {"measurement": "heart rate elevation above the vehicle group", "setting": "C57BL/6 mice", "result": 198, "unit": "bpm"}, {"measurement": "heart rate increase vs vehicle", "setting": "C57BL/6 mice", "result": 65, "unit": "%"}, {"measurement": "protein expression of mitochondrial biogenesis markers in left ventricle", "setting": "[5]", "result": "Elevated protein expression was significant"}, {"measurement": "decrease in mean arterial pressure (MAP)", "setting": "I/R injured mice", "result": 18, "unit": "%"}, {"measurement": "heart rate increase from VS", "setting": "I/R injured mice", "result": 1.5, "unit": "fold"}, {"measurement": "focal myocardial fibrosis / collagen accumulation", "setting": "BTBR WT and ob/ob mice; 8 weeks of treatment", "result": "significant focal"}, {"measurement": "probability of survival to 12 weeks of age", "setting": "BTBR WT and ob/ob mice; BTBR WT mice", "result": 38, "unit": "%"}, {"measurement": "heart weight normalized to respective Veh(Sal) controls", "setting": "BTBR WT and ob/ob mice; BTBR WT or BTBR ob/ob", "result": 1.3, "unit": "fold"}, {"measurement": "probability of surviving to 12 weeks of age", "setting": "BTBR WT and ob/ob mice; BTBR ob/ob mice", "result": 13, "unit": "%"}, {"measurement": "diffuse interstitial trichrome positive area elevation", "setting": "BTBR WT and ob/ob mice; [7]", "result": 1.6, "unit": "fold"}, {"measurement": "perivascular trichrome positive area elevation", "setting": "BTBR WT and ob/ob mice; [7]", "result": 3.7, "unit": "fold"}, {"measurement": "toxicity to RPTCs", "setting": "[6]", "result": "non-toxic"}]}
{"smiles": "COC(=O)Nc1nc2ccc(C(=O)c3cccs3)cc2[nH]1", "note": "[nocodazole]", "values": [{"measurement": "effect of inhibitor pretreatment on DEDC(NP) uptake by RPTCs", "setting": "[1]; 30 min preincubation", "result": "no observable decline in uptake"}]}
{"smiles": "CCC(C)(C)C(=O)O[C@H]1C[C@@H](C)C=C2C=C[C@H](C)[C@H](CC[C@@H]3C[C@@H](O)CC(=O)O3)[C@H]21", "note": "[simvastatin]", "values": [{"measurement": "inhibitor concentration at which decrease in nanoparticle uptake starts", "setting": "[1]; 30 min preincubation", "result": 1, "unit": "µM"}, {"measurement": "inhibitor concentration giving complete reduction in intracellular fluorescence intensity", "setting": "[1]; 30 min preincubation", "result": 100, "unit": "µM"}]}
